Test results: patent publication US20200002665A1 (Heliae Development, LLC, priority 2016, published 2020)
Where two headings read alike, the source gives them in different places.

Assays:
Chlorella (HS26) cells = assay: pH drift of cultures suspended in different nitrogen sources (Example 1); type: cell-based; details: after 24 hours, compared to a control; light, shaking 100 RPM; FIG. 10
Procedure: The Chlorella cultures were supplied with light, and shaking from a shaker table at 100 RPM. The pH drift of each culture was measured after 24 hours and compared to a control.

Chlorella (HS26) [1] = tested on: Chlorella (HS26)
Procedure: Cultures of Chlorella (HS26) were inoculated at 0.3 g/L in glass column bioreactors at a volume of 700 mL of BG-11 culture media and maintained at a temperature of 27° C. The mixotrophic cultures received aeration at a rate of 1 Liter per minute, an initial batch of 30 g glucose/L, and were supplied 270 micromoles of light using LED lights (LumiGrow, Inc., Emeryville, Calif.). In a first treatment, the culture was supplied with an initial batch of 3 g/L NaNO3 (“Nitrate” treatment), and the culture pH was controlled at a set point of 6.5 by a pH auxostat feed containing 0.50% HCl. In a second treatment, the culture was supplied with an initial batch of 3 g/L NaNO3 (“Nitrates” treatment), and the culture pH was controlled at a set point of 7.5 by a pH auxostat feed containing 0.50% HCl. […] Samples were taken daily to measure the cell dry weight, nitrogen concentration, and total protein.

Schizochytrium limacinum = details: pH 6.5
Excerpt: The heterotrophic cultures received aeration at a rate of 1 Liter per minute, and an initial batch of 80 g glycerol/L. In a first treatment, the culture was supplied with an initial batch of 20 g/L monosodium glutamate (“Glutamate” treatment), and the culture pH was controlled at a set point of 6.5 by a pH auxostat feed containing 1% HCl. […] Samples were taken daily to measure the cell dry weight, nitrogen concentration, and total protein. Results are show in FIGS. 30-33.

Chlorella (HS26) [2] = details: pH 7.0
Procedure: Cultures of Chlorella (HS26) were inoculated at 0.3 g/L in glass column bioreactors at a volume of 700 mL of BG-11 culture media and maintained at a temperature of 27° C. The mixotrophic cultures received aeration at a rate of 1 Liter per minute, an initial batch of 30 g glucose/L, and were supplied 270 micromoles of light using LED lights (LumiGrow, Inc., Emeryville, Calif.). In a first treatment, the culture was supplied with an initial batch of 3 g/L NaNO3 (“Nitrate” treatment), and the culture pH was controlled at a set point of 7.0 by a pH auxostat feed containing 0.75% HCl. […] Samples were taken daily to measure the cell dry weight, nitrogen concentration, and total protein.

Chlorella (HS26) [3] = details: for final day (day 4) cell dry weight: FIG. 16
Procedure: Cultures of Chlorella (HS26) were inoculated at 0.3 g/L in glass column bioreactors at a volume of 700 mL of BG-11 culture media and maintained at a temperature of 27° C. The mixotrophic cultures received an initial batch of 1 g/L NH4Cl, aeration at a rate of 1 Liter per minute, an initial batch of 40 g glucose/L, and were supplied 270 micromoles of light using LED lights (LumiGrow, Inc., Emeryville, Calif.). Treatments were conducted at culture medium pH values of 6.5, 7.0, 7.3, 7.5, 7.8, 8.0, and 8.5. The culture medium pH was controlled with a pH auxostat supplying a titrate of 0.5% NH4OH and 0.75% HCl at the designated set points. Samples were taken daily to measure the cell dry weight, nitrogen concentration, and total protein. Results are show in FIGS. 13-17.

Chlorella cultures = details: 1 g N/L of NH4; mixotrophic, acetic acid as organic carbon source; FIG. 11
Excerpt: The Chlorella cultures productivity using either ammonium (NH4) or nitrates (NO3) as the nitrogen source in mixotrophic culture conditions (i.e., supply of light, supply of acetic acid as the organic carbon source) were then compared. The cultures received NH4 at a concentration of 0.13 g N/L, 0.25 g N/L, 0.5 g N/L, or 1 g N/L for the ammonium treatments. The cultures received NO3 at a concentration of 0.25 g N/L or 1 g N/L for the nitrate treatments. Samples were taken to measure cell dry weight at 0, 39, 86, and 161.5 hours.

Chlorella (HS26) [4] = details: for total protein content: FIG. 29; for growth (cell dry weight over time): FIG. 26
Procedure: Cultures of Chlorella (HS26) were inoculated at 0.3 g/L in glass column bioreactors at a volume of 700 mL of BG-11 culture media and maintained at a temperature of 27° C. The mixotrophic cultures received aeration at a rate of 1 Liter per minute, an initial batch of 30 g glucose/L, and were supplied 270 micromoles of light using LED lights (LumiGrow, Inc., Emeryville, Calif.). In a first treatment, the culture was supplied with an initial batch of 3 g/L NaNO3 (“Nitrate” treatment), and the culture pH was controlled at a set point of 7.0 by a pH auxostat feed containing 0.50% HCl. In a second treatment, the culture was supplied with an initial batch of 3 g/L NaNO3 (“Nitrates” treatment), and the culture pH was controlled at a set point of 8.0 by a pH auxostat feed containing 0.50% HCl. […] Samples were taken daily to measure the cell dry weight, nitrogen concentration, and total protein.

| Compound | pH drift of culture (Chlorella (HS26) cells) | growth (cell dry weight over time) (Chlorella (HS26) [1]; Ammonia pH 6.5 treatment, among Ammonia and Nitrate treatments at pH 6.5 and 7.5, FIG. 22) | total protein content (Chlorella (HS26) [1]; Ammonia treatments pH 6.5 and 7.5 versus Nitrate treatments, FIG. 25) | growth (cell dry weight over time) (Schizochytrium limacinum; 1.0 g/L NH4Cl, 10% NH4OH feed, heterotrophic, glycerol, FIG. 30) | increase in protein yield (Schizochytrium limacinum; over the Glutamate treatment, FIG. 33) [%] | growth (cell dry weight over time) (Chlorella (HS26) [2]; 1.0 g/L NH4Cl, 0.5% NH4OH feed, versus Nitrate treatment, FIG. 18) | increase in protein (Chlorella (HS26) [2]; compared to the Nitrate treatment, FIG. 21) [%] | total protein on the final day (day 4) (Chlorella (HS26) [3]; culture pH 6.5 to 8.5, particularly above 7.5, FIG. 17) | accumulated protein (total protein content) (Chlorella (HS26) [3]; culture pH above 7.5, FIG. 15) | final day (day 4) cell dry weight (Chlorella (HS26) [3]; culture pH above 7.5) | growth (cell dry weight over time) (Chlorella (HS26) [3]; culture pH above 7.5, initial 1 g/L NH4Cl, 0.5% NH4OH titrant, FIG. 13) | final day (day 4) cell dry weight (Chlorella (HS26) [3]; culture pH of 7.5 and below) | growth and productivity (cell dry weight) (Chlorella cultures) | total protein content (Chlorella (HS26) [4]; Ammonia culture grown at the higher pH (8.0)) | growth (cell dry weight over time) (Chlorella (HS26) [4]; Ammonia pH 7.0 treatment) | growth (cell dry weight over time) (Chlorella (HS26) [4]; Ammonia pH 8.0 treatment) | total protein content (Chlorella (HS26) [4]; Ammonia treatments pH 7.0 and 8.0 versus Nitrate treatments) |
| --- | --- | --- | --- | --- | --- | --- | --- | --- | --- | --- | --- | --- | --- | --- | --- | --- | --- |
| O=[N+]([O-])[O-].[Na+] [sodium nitrate, reference compound] | increased in culture pH |  |  |  |  |  |  |  |  |  |  |  |  |  |  |  |  |
| N.N.O=S(=O)(O)O [ammonium sulfate] | decreased in culture pH |  |  |  |  |  |  |  |  |  |  |  |  |  |  |  |  |
| N [Ammonia, ammonia] |  | greatest amount of growth | more protein than the Nitrate treatments | higher resulting growth than the Glutamate treatment | 20 | better growth than the Nitrate treatment | 15 | increased as the culture pH increased | increase in accumulated protein | decreased as the culture pH increased | impaired growth | substantially similar | suffered | highest resulting protein | highest resulting growth | impaired growth | more total protein than the Nitrate treatments |
